Patent US20220323390A1, “DIETARY SUPPLEMENT TO PROMOTE GUT HEALTH” (TERRAGENICS NUTRITION, INC., priority 2019, published 2022)

Columns and labels:
Format in all cases: cell-based, human
claudin-2 = assay: qPCR gene expression of claudin-2 in Caco-2/HT29-MTX co-culture; conditions: 48 h; compared to the TNFα/IFNγ control
Procedure: (§1) Caco-2/HT29-MTX monolayers were cultured for 14 days, with three medium changes/week, until a functional cell monolayer with a transepithelial electrical resistance (TEER) was obtained. Cells were maintained in Dulbecco's Modified Eagle Medium (DMEM) containing glucose and glutamine and supplemented with HEPES and 20% (v/v) heat-inactivated (HI) fetal bovine serum (FBS). Before treatment, the TEER of the Caco-2/HT29-MTX monolayers was measured (0 h time point). The TEER of an empty insert was subtracted from all readings to account for the residual electrical resistance of an insert. The apical compartment (containing the Caco-2/HT29-MTX cells) was filled with sterile-filtered (0.22 μm) colonic batch suspensions. […] Cells were treated for 48 h and the TEER was measured at 24 h (=24 h time point) and 48 h (=48 h time point). […]
(§2) After 48 h, cells were lysed in RNA lysis buffer, centrifuged and the […] collected. qPCR is performed for tight junction genes (claudin-1, -2, -3 and -4, and occludin) and mucin genes (mucin 3); 2 housekeeping genes were Included. […] Mucins can be measured as disclosed for example in Leteutre, E. et al, Biology of the Cell 96 (2004) 145-151. Mucin turnover can be assessed as described for example in Schneider, H. et al, Nature Scientific Reports | (2018) 8:5760 | DOI:10.1038/s41598-018-24148-x. […]

claudin-3 = assay: qPCR gene expression of claudin-3 in Caco-2/HT29-MTX co-culture; conditions: 48 h; compared to the TNFα/IFNγ control
Procedure: as §1, §2

claudin-1 = assay: qPCR gene expression of claudin-1 in Caco-2/HT29-MTX co-culture; conditions: 48 h; compared to the TNFα/IFNγ control
Procedure: as §1, §2

occludin = assay: qPCR gene expression of occludin in Caco-2/HT29-MTX co-culture; conditions: 48 h; compared to the TNFα/IFNγ control
Procedure: as §1, §2

mucin-3 = assay: qPCR gene expression of mucin-3 in Caco-2/HT29-MTX co-culture; conditions: 48 h; compared to the TNFα/IFNγ control
Procedure: as §1, §2

claudin-4 = assay: qPCR gene expression of claudin-4 in Caco-2/HT29-MTX co-culture; conditions: 48 h; compared to the TNFα/IFNγ control
Procedure: as §1, §2

[1] = test system: Caco-2/HT29-MTX co-cultures; assay: Transepithelial electrical resistance (TEER) of TNFα/IFNγ-treated co-cultures given colonic batch samples; conditions: TNFα/IFNγ stimulation
Text: Caco-2, when seeded on suitable supports, spontaneously differentiate Into mature enterocyte-like cells, characterized by polarization, presence of villi, formation of domes, presence of tight junctions and vectorial transport and expression of apical brush-border enzymes (reviewed by Sambuy, Y., et al. (2005) Cell Biology and Toxicology. 21: 1-26). The mucus layer is mimicked by co-culturing Caco-2 cells with HT29-MTX cells, a mucin producing human cell line. This model is considered a useful in vitro intestinal model.
Barrier function was evaluated by measuring TEER and expression of tight junction and mucin genes in the co-culture model using TNF alpha/IFN gamma as an inflammatory insult. Inulin and sodium butyrate were used as positive controls. The test products were administered at three different concentrations. […]
Caco-2/HT29-MTX monolayers were cultured for 14 days, with three medium changes/week, until a functional cell monolayer with a transepithelial electrical resistance (TEER) was obtained. […] Before treatment, the TEER of the Caco-2/HT29-MTX monolayers was measured (0 h time point). The TEER of an empty insert was subtracted from all readings to account for the residual electrical resistance of an insert. […] Cells were treated for 48 h and the TEER was measured at 24 h (=24 h time point) and 48 h (=48 h time point). […]
TEER was measured again at 24 h and 48 h of incubation. […]

CCCC(=O)[O-].[Na+] [Sodium butyrate]
expression of claudin-2 (claudin-2): decreased the expression
expression of claudin-3 (claudin-3): increased the expression
expression of claudin-1 (claudin-1): No effect
expression of occludin (occludin): increased the expression
expression of mucin-3 (mucin-3): strongly increased the expression
expression of claudin-4 (claudin-4): increased the expression
decrease in TEER ([1]; 24 h of incubation): approximately 80%
TEER relative to initial value ([1]; 48 h of incubation): increased the TEER above its initial value
